Converted amounts (≈) assume the structure as drawn. The source made the active and inactive calls. The rule behind the calls is not given here.
Legend:
[1] = system: Cryptococcus neoformans; test: Antifungal activity against Cryptococcus neoformans ATCC32045 assessed as inhibition of fungal growth incubated for 72 hrs by broth microdilution method; assay type: functional
[2] = system: Aspergillus fumigatus; test: Antifungal activity against Aspergillus fumigatus AS3.3913 assessed as inhibition of fungal growth incubated for 72 hrs by broth microdilution method; assay type: functional
[3] = system: Candida albicans; test: Antifungal activity against Candida albicans ATCC10231 assessed as inhibition of fungal growth incubated for 72 hrs by broth microdilution method; assay type: functional
[4] = system: Candida tropicalis; test: Antifungal activity against Candida tropicalis ATCC1369 assessed as inhibition of fungal growth incubated for 72 hrs by broth microdilution method; assay type: functional
[5] = system: Cryptococcus neoformans; test: Antifungal activity against Cryptococcus neoformans ATCC32045 assessed as inhibition of melanin production at 8 ug/ml; assay type: functional, organism-based; settings: dose 8.0 µg/ml
[6] = system: Cryptococcus neoformans; test: Selectivity ratio of MFC for Cryptococcus neoformans ATCC32045 to MIC for Cryptococcus neoformans ATCC32045; assay type: functional
[7] = system: Cell membrane; test: Disruption of cell membrane in Cryptococcus neoformans ATCC32045 assessed as cell shrinkage at 2 ug/ml incubated for 12 hrs by scanning electron microscopy analysis; assay type: subcellular; settings: dose 2.0 µg/ml
[8] = system: Cell membrane; test: Disruption of membrane integrity in Cryptococcus neoformans ATCC32045 assessed as red fluorescence at 2 ug/ml incubated for 4 hrs by PI staining based fluorescence microscopic analysis; assay type: subcellular; settings: dose 2.0 µg/ml
[9] = system: Cell membrane; test: Disruption of cell membrane in Cryptococcus neoformans ATCC32045 assessed as cell wrinkling at 2 ug/ml incubated for 12 hrs by scanning electron microscopy analysis; assay type: subcellular; settings: dose 2.0 µg/ml
[10] = system: Cell membrane; test: Disruption of membrane integrity in Cryptococcus neoformans ATCC32045 assessed as blue fluorescence at 2 ug/ml incubated for 4 hrs by DAPI staining based fluorescence microscopic analysis; assay type: subcellular; settings: dose 2.0 µg/ml
[11] = system: Cryptococcus neoformans; test: Antibiofilm activity against Cryptococcus neoformans ATCC32045 assessed as inhibition of biofilm formation incubated for 24 hrs by XTT reduction assay; assay type: functional, organism-based; settings: dose 0.125-8 µg/ml
[12] = system: Cryptococcus neoformans; test: Fungicidal activity against Cryptococcus neoformans ATCC32045 assessed as reduction in viable colony counts at 0.5 to 1 ug/ml observed within 4 hrs by time kill assay (reference value: 6 log10CFU/ml); assay type: functional; settings: dose 0.5-1 µg/ml
[13] = Cytotoxicity against HUVEC cells assessed as inhibition of cell viability incubated for 24 hrs by CCK-8 assay; assay type: toxicity, cell-based; settings: human
[14] = system: Cryptococcus neoformans; test: Antibiofilm activity against Cryptococcus neoformans ATCC32045 assessed as reduction in 24 hrs preformed biofilm at 1 ug/ml incubated for 24 hrs by XTT reduction assay relative to control; assay type: functional; design: scale not given: the % may be the effect or the level left; settings: dose 1 µg/ml
[15] = system: Cell membrane; test: Disruption of cell membrane in Cryptococcus neoformans ATCC32045 assessed as cell disintegration at 2 ug/ml incubated for 12 hrs by scanning electron microscopy analysis; assay type: subcellular; settings: dose 2.0 µg/ml
[16] = system: Cryptococcus neoformans; test: Antibiofilm activity against Cryptococcus neoformans ATCC32045 assessed as inhibition of biofilm formation at >=4 ug/ml incubated for 24 hrs by XTT reduction assay relative to control; assay type: functional; settings: dose >= 4 µg/ml
[17] = system: Cryptococcus neoformans; test: Fungicidal activity against Cryptococcus neoformans ATCC32045 incubated for 72 hrs; assay type: functional
[18] = system: Cryptococcus neoformans; test: Antifungal activity against Cryptococcus neoformans ATCC32045 assessed as inhibition of urease production at 2 ug/ml; assay type: functional, organism-based; settings: dose 2.0 µg/ml
[19] = system: Cryptococcus neoformans; test: Fungicidal activity against Cryptococcus neoformans ATCC32045 assessed as reduction in viable colony count incubated for 12 hrs by time kill assay; assay type: functional, organism-based
[20] = system: Cryptococcus neoformans; test: Disruption of 24 hrs preformed biofilm in Cryptococcus neoformans ATCC32045 incubated for 24 hrs by XTT reduction assay; assay type: functional, organism-based; settings: dose 0.125-8 µg/ml
[21] = Selectivity index, ratio of CC50 for HUVEC cells to MIC for antifungal activity against Cryptococcus neoformans ATCC32045; assay type: toxicity; settings: human, read-out: Selectivity Index

| MIC [1] [µg/mL] | MIC [2] [µg/mL] | MIC [3] [µg/mL] | MIC [4] [µg/mL] | SMILES | further results |
| --- | --- | --- | --- | --- | --- |
| 4 (≈ 12.2 µM) | > 512 | > 512 | > 512 | CCCCCCCCc1ccc(-c2cc(O)c(O)c(OC)c2)cc1 |  |
| 0.25 (≈ 0.975 µM) | 8 (≈ 31.2 µM) | 2 (≈ 7.8 µM) | 1 (≈ 3.9 µM) | CCCCCc1ccc(-c2cc(O)cc(O)c2)cc1 | Activity [5]: Active; Selectivity ratio [6]: 4; Activity [7]: Active; Activity [8]: Active; Activity [9]: Active; Activity [10]: Active; Activity [11]: Dose-Dependent Effect; Activity [12]: 4 log10CFU/ml; CC50 at 24 h [13]: 19.4 µg/mL (≈ 75.7 µM); Activity [14]: ~71.6%; Activity [15]: Active; inhibition (INH) [16]: ~100%; MFC [17]: 1 µg/mL (≈ 3.9 µM); Activity [18]: Active; Activity [19]: Dose-Dependent Effect; Activity [20]: Dose-Dependent Effect |
| 8 (≈ 24.8 µM) | 128 (≈ 396 µM) | 32 (≈ 99 µM) | 32 (≈ 99 µM) | COc1cc(-c2ccc(CCBr)cc2)cc(O)c1O |  |
| 2 (≈ 7.34 µM) | 32 (≈ 117 µM) | 8 (≈ 29.4 µM) | 4 (≈ 14.7 µM) | CCCCCc1ccc(-c2cc(O)c(O)c(O)c2)cc1 |  |
| 8 (≈ 31.2 µM) | 32 (≈ 125 µM) | 32 (≈ 125 µM) | 32 (≈ 125 µM) | CCCCCc1ccc(-c2c(O)cccc2O)cc1 |  |
| 8 (≈ 32.7 µM) | 64 (≈ 262 µM) | 32 (≈ 131 µM) | 32 (≈ 131 µM) | CCc1ccc(-c2cc(O)c(O)c(OC)c2)cc1 |  |
| 2 (≈ 6.36 µM) | > 512 | 512 (≈ 1630 µM) | 512 (≈ 1630 µM) | CCCCCCCc1ccc(-c2cc(O)c(O)c(OC)c2)cc1 |  |
| 4 (≈ 14.7 µM) | 32 (≈ 117 µM) | 8 (≈ 29.4 µM) | 4 (≈ 14.7 µM) | CCCCCc1ccc(-c2ccc(O)c(O)c2O)cc1 |  |
| 0.5 (≈ 1.95 µM) | 8 (≈ 31.2 µM) | 2 (≈ 7.8 µM) | 2 (≈ 7.8 µM) | CCCCCc1ccc(-c2ccc(O)cc2O)cc1 | Selectivity ratio [6]: 1; MFC [17]: 0.5 µg/mL (≈ 1.95 µM) |

Further lines, the compound ahead of its results:

| SMILES | MIC [1] [µg/mL] | MIC [2] [µg/mL] | MIC [3] [µg/mL] | MIC [4] [µg/mL] | further results |
| --- | --- | --- | --- | --- | --- |
| COc1cc(-c2ccc(C(C)(C)C)cc2)cc(O)c1O | 4 (≈ 14.7 µM) | 64 (≈ 235 µM) | 16 (≈ 58.7 µM) | 16 (≈ 58.7 µM) |  |
| COc1cc(-c2ccc(C(C)C)cc2)cc(O)c1O | 8 (≈ 31 µM) | 64 (≈ 248 µM) | 16 (≈ 61.9 µM) | 16 (≈ 61.9 µM) |  |
| COc1cc(-c2ccc(O)cc2)cc(O)c1O | > 512 | > 512 | > 512 | > 512 |  |
| CCCc1ccc(-c2ccc(-c3cc(O)c(O)c(OC)c3)cc2)cc1 | 4 (≈ 12 µM) | > 512 | 512 (≈ 1530 µM) | 64 (≈ 191 µM) |  |
| CCCCCCc1cccc(-c2cc(O)c(O)c(OC)c2)c1 | 2 (≈ 6.66 µM) | 512 (≈ 1700 µM) | > 512 | 8 (≈ 26.6 µM) |  |
| COc1cc(-c2ccccc2F)cc(O)c1O | 128 (≈ 546 µM) | 64 (≈ 273 µM) | 128 (≈ 546 µM) | 128 (≈ 546 µM) |  |
| COc1cc(-c2ccccc2)cc(O)c1O | 64 (≈ 296 µM) | 128 (≈ 592 µM) | 128 (≈ 592 µM) | 128 (≈ 592 µM) |  |
| COc1cc(-c2ccccc2)cc(OC(C)=O)c1OC(C)=O | > 512 | > 512 | > 512 | > 512 |  |
| COc1cc(-c2ccc(CCC#N)cc2)cc(O)c1O | 512 (≈ 1900 µM) | 512 (≈ 1900 µM) | 512 (≈ 1900 µM) | 512 (≈ 1900 µM) |  |
| COc1cc(-c2ccccc2)cc(OC(=O)C2CCCCC2)c1OC(=O)C1CCCCC1 | > 512 | > 512 | > 512 | > 512 |  |
| C[C@@H]1[C@H](O)[C@@H](C)/C=C/C=C/C=C/C=C/C=C/C=C/C=C/[C@H](O[C@@H]2O[C@H](C)[C@@H](O)[C@H](N)[C@@H]2O)C[C@@H]2O[C@](O)(C[C@@H](O)C[C@@H](O)[C@H](O)CC[C@@H](O)C[C@@H](O)CC(=O)O[C@H]1C)C[C@H](O)[C@H]2C(=O)O [AMPHOTERICIN B] | 0.25 (≈ 0.271 µM) | 2 (≈ 2.16 µM) | 0.5 (≈ 0.541 µM) | 0.5 (≈ 0.541 µM) | Activity [8]: Active; Activity [10]: Active; Selectivity ratio [21]: 16; Activity [12]: 4 log10CFU/ml; CC50 at 24 h [13]: 4.12 µg/mL (≈ 4.46 µM); MFC [17]: 2 µg/mL (≈ 2.16 µM); Activity [19]: Dose-Dependent Effect |

Reference: ChEMBL document CHEMBL5634120, “Natural phytoalexins inspired the discovery of new biphenyls as potent antifungal agents for treatment of invasive fungal infections” (Eur J Med Chem, 2023)
